Measured values from patent publication US20040014624A1, “Recylable cleaning compositions” (priority 2003, published 2004).
Where two headings read alike, the source gives them in different places.

Columns and labels:
[1] = Surfactant Log P estimate by reversed phase HPLC
Experimental: Reversed phase HPLC was performed on all samples. Samples were filtered through Gelman 0.45 um PVDF filters and analyzed. Almost all separations were utilized the following conditions:
Column: Supelcosil LC-18 column, 15 cm×4.6 mm, 5 um particle size (Supelco, Bellefonte, Pa.).
Flow: 1 ml/min. Temperature: ambient Injection Volume: 50 ul Mobile Phase A: 70:30 methanol: water (v+v) with 10 mM ammonium acetate.
Mobile Phase B: 100% methanol.
The ELSD was operated at 40° C., with a nitrogen flow rate of 1.8 l/min. A Chromeleon Chromatography Data system (Dionex Corp. Sunnyvale, Calif.) was used to collect and process the HPLC data.
A reversed phase HPLC method was used to estimate surfactant Log P values. The HPLC capacity factor, k′, for each material was determined according to the equation: […]
The column void time was determined from the elution time of unretained salt. […] (FIG. 6).
The reversed phase HPLC separation used herein separates primarily based on the size of the hydrophobe. […] The peak maximum retention time was used to determine the Log P estimate for surfactants with either the narrow or the broad single peak profiles. […] (FIG. 7). […] In addition, the retention time of the individual hydrophobe peaks was used to calculate Log P values for these oligomers.

[2] = Membrane filtration permeability, unsoiled system; assay type: physicochemical
Excerpt: (§1) A Membrex Benchmark GX (Fairfield, N.J.) lab-scale rotating membrane filtration unit was used for all permeability studies. Membrane cartridges were made of polyacrylonitrile with a 0.05 um pore size (Part #0567, Osmonics Corp., Minnetonka, Minn.).
(§2) One to two liters of the aqueous alkaline solution of the present invention in its diluted form, usually including 0.15% surfactant and 0.05% potassium carbonate, was placed in both the customer (or initial) and holding tanks (appropriately sized glass beakers). For experiments with soil, oil was added at a 1% level to both tanks. The tanks were heated with magnetic stirring on hotplates to either 140° F. or 100° F. The temperature was maintained throughout each experiment with RTD temperature probes interfaced to the hotplates. The rotation rate of the membrane filtration unit was 3000 RPM. Material from the holding tank was pumped into the membrane filtration unit at a flow of 600 ml/min. The outlet pressure was adjusted to achieve a 5 psi pressure drop across the membrane, resulting in permeate flows of approximately 100-300 ml/min depending on the soil and the operating temperature. The transfer line from the customer tank to the holding tank was adjusted to equal the permeate flow rate in order to maintain a constant level in both customer and holding tank. One cycle or turnover is defined to be the time at which the cumulative volume of permeate equals the initial volume of the customer tank. Permeate samples were collected at 1, 5 and/or 10 cycles.
(§3) A 0.05 um PAN membrane was used in the filtration.
(§4) Surfactant levels in permeate samples were determined by TOC (unsoiled studies only) and by HPLC/ELSD.
(§5) A sample of the initial cleaning solution was collected before addition of oil (if added) and before starting membrane operation. This initial cleaning soultion sample is defined to be the 100% permeable concentration. Serial dilutions of the 100% permeable sample were made to obtain calibration samples for the HPLC analysis. Point-to-point calibration curves were used for HPLC quantitation due to the non-linear nature of the ELSD response. For TOC analysis the initial cleaning solution sample was used for the single point calibration. For surfactants with multiple surfactant oligomers, individual oligomer permeability and overall surfactant permeability were determined. The overall surfactant permeability was calculated from the average of the oligomer results, except for Surfonic® L108/85-5 where the result for major C8 hydrophobe was used.

[3] = Membrane filtration permeability, Pennzoil 80W90 soiled system; assay type: physicochemical; settings: 1% oil, 140° F., HPLC
Excerpt: as §1, §2, §3, §4, §5
(§6) Example 3 was performed in the same way as Example 2 but in the presence of soil. The method described in Example 2 was followed in Example 3. The permeability performance of surfactants in soiled systems is of interest given the desire to separate the aqueous cleaning materials from soil. Two oils were evaluated in this study: Cosmoline® 1102 and Pennzoil® 80W90 oil.

[4] = 1% aqueous solutions, Table H; cited from earlier work
[5] = Membrane filtration permeability, Cosmoline 1102 soiled system; assay type: physicochemical; settings: 1% oil, 140° F., HPLC
Excerpt: as §1, §2, §3, §4, §5, §6
The permeability of four surfactants was evaluated at 100° F. in the presence of 1% Cosmoline® 1102 oil. […] The results are listed in Table N and are plotted in FIG. 26 with a comparison to the 140° F. results.

[6] = known values used for calibration; cited from earlier work
[7] = unsoiled, Cycle 5, 140° F., HPLC (Table M)
[8] = single peak or individual hydrophobe peak, alkyl benzene standards
[9] = unsoiled, Cycle 1, 0.05 um PAN membrane
[10] = unsoiled, Cycle 5, 0.05 um PAN membrane
[11] = unsoiled, Cycle 10, 0.05 um PAN membrane

Row | Permeability, Pennzoil80W90-Cycle 5 [3] | Permeability, Cosmoline 1102-Cycle 5 [5] | LogP, HPLC estimate [1] | % Permeability ([2]; not told) | Compound | Cloud Point (° C.) [4] | also measured
1 | – | – | – | – | CCc1ccccc1 [ethyl benzene] | – | Log P of alkylbenzene retention time standards [6]: 3.13
2 | – | – | – | – | CCCCCCc1ccccc1 [hexyl benzene] | – | Log P of alkylbenzene retention time standards [6]: 5.24
3 | – | – | – | – | CCCCCCCCc1ccccc1 [octyl benzene] | – | Log P of alkylbenzene retention time standards [6]: 6.30
4 | 97% | 74% | 2.5 | 104% | C8 mono-glucoside [Glucopon ® 425/C8] | – | –
5 | 77% | 22% | 3.2 | 87% | C10 mono-glucoside [Glucopon ® 425/C10] | – | –
6 | 49% | <20% | 4.3 | 44% | C12 mono-glucoside [Glucopon ® 425/C12] | – | –
7 | 39% | <20% | 5.2 | 35% | C14 mono-glucoside [Glucopon ® 425/C14] | – | –
8 | – | 9% | 3.6 | – | cocamidopropyl betaine ammonium salt [Foamtaine ® CAB-A] | None | –

Row | Compound | Permeability, Pennzoil80W90-Cycle 5 [3] | Permeability, Cosmoline 1102-Cycle 5 [5] | LogP, HPLC estimate [1] | % Permeability ([2]; not told) | Cloud Point (° C.) [4] | also measured
9 | CCCCCCCCCCCC[N+](C)(C)[O-] [Barlox ® 12, dodecyl dimethyl amine oxide] | 63% | – | – | – | None | chromatographic logP [1]: 4.5; % Permeability [2, 7]: 80%
10 | CCCCCCCC[N+](C)(C)[O-] [Mackamine ® C8, linear octyl dimethyl amine oxide] | 95% | 95% | – | – | None | LogP, HPLC estimate [1, 8]: 2.5; % Permeability (HPLC) [2, 9]: 104%; % Permeability (TOC) [2, 9]: 101%; % Permeability (HPLC) [2, 10]: 105%; % Permeability (TOC) [2, 10]: 108%; % Permeability [2, 7]: 105%; % Permeability (HPLC) [2, 11]: 102%; % Permeability (TOC) [2, 11]: 117%; Permeability, Cosmoline 1102-Cycle 1 [5]: 94%; Permeability, Cosmoline 1102-Cycle 10 [5]: 99%
11 | CCCCCCCCCC[N+](C)(C)[O-] [Mackamine ® C10, linear decyl dimethyl amine oxide] | – | 53% | – | – | None | LogP, HPLC estimate [1, 8]: 3.4
